Assay results published in US20210046139A1, “VEGETATION WATERS AND USES THEREOF” (FATTORIA LA VIALLA DI GIANNI, ANTONIO E BANDINO LO FRANCO - …, priority 2018, published 2021).

Legend:
STZ diabetic rats [1] = assay: Plasma glucose and glycated hemoglobin (HbA1c); assay type: in vivo, Sprague-Dawley rats; conditions: for HbA1c / PLASMA GLUCOSE: 50 mg/kg/day, 5 weeks, mean ± S.E.
Source text: A well-established model of streptozotocin (STZ)-induced diabetes in rats was used. Streptozotocin is a glucosamine derivative of nitrosurea which selectively destroys the β cells of the pancreatic islets and causes the development of diabetes with hyperglycemia and glycosuria. The model shares a series of characteristics with human diabetic complications at both a functional level and a biochemical level, such as, for example, a reduced nervous conduction, loss of small-diameter sensory nerve fibers in the skin, reduction in Na+ and K+-ATPase activity and early alterations of the thermal and mechanical nociceptive thresholds. In this study, diabetes was induced in 24 rats with a single intraperitoneal injection of 60 mg/kg of STZ dissolved in a sodium citrate buffer (pH 4.5). 24 rats injected only with the vehicle were used as non-diabetic controls. Hyperglycemia was confirmed by measuring glycosuria 72 hours after the injection of STZ using Keto-Diabur strips (KD-5000; Roche Diagnostics Spa, Italy). Only the animals with glycosuria >5% were classified as diabetic and included in the study. […] The animals were then randomized to receive the concentrate of the invention at an HT equivalent dose of 50 mg/kg/day or 50 mg/kg/day of pure HT in drinking water, according to the following treatment groups: The daily dose of compounds was administered starting from the 7th week after the injection of STZ or the vehicle. The treatment lasted 5 weeks and urine samples were taken. The animals were then sacrificed and the plasma, kidneys and sciatic nerves were removed. The sacrifice took place within 2 hours after the last administration of the concentrate, HT or the vehicle. During the trial, the rats were weighed weekly to monitor their weight gain/loss. Hyperglycemia was confirmed in every rat by measuring the glucose level in the blood taken from the vein of the tail with a suitable apparatus (Glucomen, Menarini, Italy), 15 days after the injection of STZ. A plasma glucose level above 300 mg/dL was defined as the hyperglycemia threshold for defining the animals as diabetics. At the end of the 5-week treatment period, urine and plasma were collected to measure the level of triglycerides (TG), total cholesterol (TC), high-density lipoprotein (HDL) and other parameters using commercially available diagnostic kits.

STZ diabetic rats [2] = assay: Motor and sensory nerve conduction velocity (tail, sciatic nerve); assay type: in vivo, Sprague-Dawley rats; conditions: end of administration (week 12), mean ± S.E.; for Conduction of sciatic nerve: sciatic motor NCV; for Sensitivity of sciatic nerve: sciatic sensory NCV; for Conduction of tail: tail motor NCV; for Sensitivity of tail: tail sensory NCV
Source text: A well-established model of streptozotocin (STZ)-induced diabetes in rats was used. Streptozotocin is a glucosamine derivative of nitrosurea which selectively destroys the β cells of the pancreatic islets and causes the development of diabetes with hyperglycemia and glycosuria. The model shares a series of characteristics with human diabetic complications at both a functional level and a biochemical level, such as, for example, a reduced nervous conduction, loss of small-diameter sensory nerve fibers in the skin, reduction in Na+ and K+-ATPase activity and early alterations of the thermal and mechanical nociceptive thresholds. In this study, diabetes was induced in 24 rats with a single intraperitoneal injection of 60 mg/kg of STZ dissolved in a sodium citrate buffer (pH 4.5). 24 rats injected only with the vehicle were used as non-diabetic controls. Hyperglycemia was confirmed by measuring glycosuria 72 hours after the injection of STZ using Keto-Diabur strips (KD-5000; Roche Diagnostics Spa, Italy). Only the animals with glycosuria >5% were classified as diabetic and included in the study. […] The animals were then randomized to receive the concentrate of the invention at an HT equivalent dose of 50 mg/kg/day or 50 mg/kg/day of pure HT in drinking water, according to the following treatment groups: The electrophysiological studies were performed using a portable electromyograph (Alpine Biomed ApS DK-2740, Denmark). The test on sciatic nerve conduction was performed by stimulating the sciatic nerve in the Achilles tendons and in the hollow above the sciatic nerve at the point of attachment of the tail with a single 2.2 ms supramaximal pulse using a bipolar electrode. A measurement of the motor action potential (CMAP) was obtained by placing the active electrode in subcutaneous tissue, in the first interosseous muscle of a toe of the hind paw, and the reference electrode in the fourth interosseous muscle of the same paw. The motor conduction velocity was calculated by subtracting the distal value from the proximal value taking the latency of the first negative peak of the proximal CMAP, measured in milliseconds, and the difference was […] the distance between the two stimulating electrodes, measured in millimeters. The sensory conduction velocity was determined using the plantar nerve. The sensory nerve action potential (SNAP) of the plantar nerve was measured by placing the recording electrode (needle) in subcutaneous tissue at the level of the […] next to the medial malleolus and the reference electrode proximally at about 1 cm. Circular stimulation electrodes were placed in the middle of the three middle toes of the hind paw, and stimulation was performed with a square pulse wave lasting 0.05 ms, with a barely supramaximal current intensity stimulus. The sensory conduction velocity was calculated by measuring the latency at the negative deviation of the peak potential and the distance between the stimulation electrode and the recording electrode. The motor and sensory conduction velocities are expressed as meters per second. The tail motor and sensory conduction test requires that the sensory nerve of the tail be stimulated by inserting the cathode 2 cm from the tip of the tail and the anode at 1 cm distally, using a square wave pulse lasting 0.05-ms at a supramaximal intensity. The SNAPs were recorded by inserting the active electrode 5 cm from the cathode and the reference electrode at 1 cm more proximally. The sensory nerve conduction velocity was calculated by measuring the latency at the peak of the first negative deflection and the distance between the stimulating and recording electrodes. The tail motor nerve conduction was obtained using a bipolar recording configuration. The active electrode was positioned 2 cm from the tip of the tail and the reference electrode at 1 cm distally. The motor nerve of the tail was initially stimulated at 5 cm proximally from the active recording electrode and, subsequently, proximally at 10 cm. […]

[3] = non-diabetic control rats (CTRL)

OCCc1ccc(O)c(O)c1 [HT, hydroxytyrosol]
reduction in HbA1c (glycated hemoglobin) (STZ diabetic rats [1]; STZ diabetic rats vs. untreated diabetic rats): 20% | HbA1c (STZ diabetic rats [1]; STZ diabetic rats): 52.3 ± 5.3 mM/mol | PLASMA GLUCOSE (STZ diabetic rats [1]; STZ diabetic rats): 729.6 ± 36.5 mg/dL | HbA1c (STZ diabetic rats [1]; [3]): 16.7 ± 0.2 mM/mol | PLASMA GLUCOSE (STZ diabetic rats [1]; [3]): 186.1 ± 3.2 mg/dL | Conduction of sciatic nerve (STZ diabetic rats [2]; STZ diabetic rats): 40.3 ± 0.7 m/sec. | Conduction of sciatic nerve (STZ diabetic rats [2]; [3]): 46.5 ± 1.5 m/sec. | Sensitivity of sciatic nerve (STZ diabetic rats [2]; STZ diabetic rats): 33.7 ± 0.9 m/sec. | Sensitivity of sciatic nerve (STZ diabetic rats [2]; [3]): 39.0 ± 0.9 m/sec. | Conduction of tail (STZ diabetic rats [2]; STZ diabetic rats): 37.4 ± 0.9 m/sec. | Conduction of tail (STZ diabetic rats [2]; [3]): 36.1 ± 1.7 m/sec. | Sensitivity of tail (STZ diabetic rats [2]; STZ diabetic rats): 30.8 ± 0.8 m/sec. | Sensitivity of tail (STZ diabetic rats [2]; [3]): 34.7 ± 1.3 m/sec.
